Test results taken from PubChem BioAssay (NCI).
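48-hour exposure; five concentrations; linearly interpolated endpoints. TGI denotes the concentration required for complete inhibition of growth.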

Assays:
Test in all cases: NCI anticancer screen, dose series, 48 h
[1] = tested on: T-47D breast
[2] = tested on: SNB-19 CNS
[3] = tested on: NCI-H23 lung
[4] = tested on: HCC-2998 colon
[5] = tested on: OVCAR-4 ovarian
[6] = tested on: IGROV1 ovarian
[7] = tested on: MCF7 breast
[8] = tested on: MDA-N
[9] = tested on: RPMI-8226 leukemia
[10] = tested on: SK-MEL-28 melanoma
[11] = tested on: MALME-3M melanoma
[12] = tested on: UO-31 renal
[13] = tested on: MDA-MB-435
[14] = tested on: M14 melanoma
[15] = tested on: A549 NSCLC
[16] = tested on: NCI-H460 lung
[17] = tested on: HT29 colon
[18] = tested on: MOLT-4 leukemia
[19] = tested on: 786-0 renal
[20] = tested on: SK-OV-3 ovarian
[21] = tested on: SK-MEL-2 melanoma
[22] = tested on: HOP-62 NSCLC
[23] = tested on: U251 CNS
[24] = tested on: SF-268 CNS
[25] = tested on: NCI/ADR-RES ovarian
[26] = tested on: KM12 colon
[27] = tested on: UACC-62 melanoma
[28] = tested on: HL-60(TB) leukemia
[29] = tested on: HS 578T breast
[30] = tested on: HCT-15 colon
[31] = tested on: OVCAR-5 ovarian
[32] = tested on: RXF 393 renal
[33] = tested on: UACC-257 melanoma
[34] = tested on: PC-3 prostate
[35] = tested on: SF-539 CNS
[36] = tested on: CCRF-CEM leukemia
[37] = tested on: ACHN renal
[38] = tested on: SF-295 CNS
[39] = tested on: TK-10 renal
[40] = tested on: SW-620 colon
[41] = tested on: HCT-116 colon
[42] = tested on: SNB-75 CNS
[43] = tested on: OVCAR-3 ovarian
[44] = tested on: LOX IMVI melanoma
[45] = tested on: HOP-92 NSCLC
[46] = tested on: COLO 205 colon
[47] = tested on: DU-145 prostate
[48] = tested on: SN12C renal
[49] = tested on: SK-MEL-5 melanoma
[50] = tested on: K-562 leukemia
[51] = tested on: CAKI-1 renal
[52] = tested on: SR leukemia
[53] = tested on: BT-549 breast
[54] = tested on: OVCAR-8 ovarian
[55] = tested on: EKVX NSCLC
[56] = tested on: NCI-H522 lung
[57] = tested on: A498 renal
[58] = tested on: NCI-H226 lung
[59] = tested on: MDA-MB-231 breast

In the case of `O=C(/C=C(\N=P(c1ccccc1)(c1ccccc1)c1ccccc1)C(F)(F)C(F)(F)C(F)(F)C(F)(F)C(F)(F)C(F)(F)C(F)(F)F)c1ccccc1`, the TGI [1] is reported as greater than 100 µM, the TGI [2] is reported as greater than 100 µM and the TGI [3] is reported as greater than 100 µM. The TGI [4] was greater than 100 µM, the TGI [5] was greater than 100 µM and the TGI [6] was greater than 100 µM. The TGI [7] was greater than 100 µM, the TGI [8] was greater than 100 µM and the TGI [9] was greater than 100 µM. The TGI [10] was greater than 100 µM, the TGI [11] was greater than 100 µM and the TGI [12] was greater than 100 µM. It also gave a TGI [13] greater than 100 µM, a TGI [14] greater than 100 µM and a TGI [15] greater than 100 µM. It also gave a TGI [16] greater than 100 µM, a TGI [17] greater than 100 µM and a TGI [18] greater than 100 µM. It also gave a TGI [19] greater than 100 µM, a TGI [20] greater than 100 µM and a TGI [21] greater than 100 µM. It also gave a TGI [22] greater than 100 µM, a TGI [23] greater than 100 µM and a TGI [24] greater than 100 µM. It also gave a TGI [25] greater than 100 µM, a TGI [26] greater than 100 µM and a TGI [27] greater than 100 µM. The TGI [28] was greater than 100 µM, the TGI [29] was greater than 100 µM and the TGI [30] was greater than 100 µM. It also gave a TGI [31] greater than 100 µM, a TGI [32] greater than 100 µM and a TGI [33] greater than 100 µM. It also gave a TGI [34] greater than 100 µM, a TGI [35] greater than 100 µM and a TGI [36] greater than 100 µM. The TGI [37] was greater than 100 µM, the TGI [38] was greater than 100 µM and the TGI [39] was greater than 100 µM. For the same molecule, the TGI [40] was greater than 100 µM, the TGI [41] was greater than 100 µM and the TGI [42] was greater than 100 µM. For the same molecule, the TGI [43] was greater than 100 µM, the TGI [44] was greater than 100 µM and the TGI [45] was greater than 100 µM. It also gave a TGI [46] greater than 100 µM, a TGI [47] greater than 100 µM and a TGI [48] greater than 100 µM. For the same molecule, the TGI [49] was greater than 100 µM, the TGI [50] was greater than 100 µM and the TGI [51] was greater than 100 µM. For the same molecule, the TGI [52] was greater than 100 µM and the TGI [53] was greater than 100 µM.

With `O=c1c2c3c(sc2nc(CN2CCNCC2)n1-c1ccccc1)CCCC3` the TGI [1] was greater than 100 µM, the TGI [54] was greater than 100 µM and the TGI [2] was greater than 100 µM. The TGI [3] was greater than 100 µM, the TGI [4] was greater than 100 µM and the TGI [5] was 82.9 µM. It also gave a TGI [6] greater than 100 µM, a TGI [7] greater than 100 µM and a TGI [8] greater than 100 µM. It also gave a TGI [9] greater than 100 µM, a TGI [10] greater than 100 µM and a TGI [11] greater than 100 µM. For the same molecule, the TGI [12] was greater than 100 µM, the TGI [14] was greater than 100 µM and the TGI [15] was greater than 100 µM. For the same molecule, the TGI [55] was greater than 100 µM, the TGI [16] was greater than 100 µM and the TGI [17] was greater than 100 µM. It also gave a TGI [18] greater than 100 µM, a TGI [19] greater than 100 µM and a TGI [20] greater than 100 µM. For the same molecule, the TGI [21] was greater than 100 µM, the TGI [22] was greater than 100 µM and the TGI [23] was greater than 100 µM. It also gave a TGI [24] greater than 100 µM, a TGI [25] greater than 100 µM and a TGI [26] greater than 100 µM. For the same molecule, the TGI [27] was greater than 100 µM, the TGI [28] was greater than 100 µM and the TGI [29] was greater than 100 µM. It also gave a TGI [30] greater than 100 µM, a TGI [31] greater than 100 µM and a TGI [32] greater than 100 µM. For the same molecule, the TGI [33] was greater than 100 µM, the TGI [56] was greater than 100 µM and the TGI [34] was greater than 100 µM. It also gave a TGI [36] greater than 100 µM, a TGI [37] greater than 100 µM and a TGI [38] greater than 100 µM. The TGI [39] was greater than 100 µM, the TGI [40] was greater than 100 µM and the TGI [41] was greater than 100 µM. The TGI [42] was greater than 100 µM, the TGI [43] was greater than 100 µM and the TGI [44] was greater than 100 µM. The TGI [45] was greater than 100 µM, the TGI [57] was greater than 100 µM and the TGI [58] was greater than 100 µM. The TGI [46] was greater than 100 µM, the TGI [47] was greater than 100 µM and the TGI [59] was greater than 100 µM. The TGI [48] was greater than 100 µM, the TGI [49] was greater than 100 µM and the TGI [50] was greater than 100 µM. The TGI [51] was greater than 100 µM, the TGI [52] was greater than 100 µM and the TGI [53] was greater than 100 µM.

Work on `C=CS(=O)(=O)c1c2cc(OC)ccc2nc2ccc(OC)cc12` yielded a TGI [1] of 35.5 µM, a TGI [54] of 15.4 µM and a TGI [2] of 45.1 µM. For the same molecule, the TGI [3] was 28.2 µM, the TGI [4] was 24.8 µM and the TGI [5] was 30 µM. For the same molecule, the TGI [6] was 12.5 µM, the TGI [7] was greater than 25.7 µM and the TGI [8] was 11.3 µM. For the same molecule, the TGI [9] was 7.28 µM, the TGI [10] was 45.6 µM and the TGI [11] was 4.89 µM. For the same molecule, the TGI [12] was greater than 27.4 µM, the TGI [13] was 22.7 µM and the TGI [14] was greater than 49.7 µM. It also gave a TGI [15] greater than 47.1 µM, a TGI [55] of 21.1 µM and a TGI [16] greater than 44.3 µM. For the same molecule, the TGI [17] was 10.7 µM, the TGI [18] was greater than 100 µM and the TGI [19] was 7.82 µM. The TGI [20] was 33.1 µM, the TGI [21] was 51.3 µM and the TGI [22] was 32.8 µM. The TGI [23] was greater than 52.6 µM, the TGI [24] was 33.4 µM and the TGI [25] was 76.2 µM. For the same molecule, the TGI [26] was 28.8 µM, the TGI [27] was 31.3 µM and the TGI [28] was greater than 100 µM. The TGI [29] was 11.9 µM, the TGI [30] was greater than 33.9 µM and the TGI [31] was greater than 36.9 µM. For the same molecule, the TGI [32] was 18.4 µM, the TGI [33] was 24 µM and the TGI [56] was 3.74 µM. For the same molecule, the TGI [34] was 23.3 µM, the TGI [35] was greater than 21.2 µM and the TGI [36] was greater than 23.4 µM. For the same molecule, the TGI [37] was 24.5 µM, the TGI [38] was 32.3 µM and the TGI [39] was 23.5 µM. The TGI [40] was greater than 20.7 µM, the TGI [41] was 5.02 µM and the TGI [42] was 26.3 µM. The TGI [43] was 15.8 µM, the TGI [44] was 7.16 µM and the TGI [45] was greater than 51.1 µM. It also gave a TGI [57] of 27.7 µM, a TGI [58] of 35.1 µM and a TGI [46] greater than 42.3 µM. It also gave a TGI [47] of 19.8 µM, a TGI [59] of 50.7 µM and a TGI [48] of 8.21 µM. For the same molecule, the TGI [49] was 27 µM, the TGI [50] was greater than 23.4 µM and the TGI [51] was 14.9 µM. It also gave a TGI [53] of 22.4 µM.
